Here are results for 4 molecules from US7812142B2, “Pentose derivatives as anti-hyperglycemic drugs” (Yissum Research Development Company of the Hebrew …, priority 2002, dated 2010).

Data set [1] relates to streptozotocin-diabetic C57/black mice. Put plainly: Anti-hyperglycemic activity in streptozotocin-diabetic mice. Type of data set: in vivo, mouse. The procedure: FIG. 12: Anti-hyperglycemic activity of EH-36 in streptozotocin-diabetic mice. Mice were treated with EH-36 or the vehicle alone (sesame oil, bold lines), and their blood glucose levels determined at the indicated time intervals. Male C57/black mice were made hyperglycemic by 5 repeated daily injections of streptozotocin (i.p. 50 mg/Kg body weight). EH-36 was dissolved in sesame oil (4 mg/ml) and injected s.c (400 μg) twice a day.
FIG. 13: Anti-hyperglycemic activity of EH-36 in streptozotocin-diabetic mice. Mice were treated with EH-36 (as described in the legend to FIG. 12) or the vehicle alone (sesame oil, bold lines), and their blood glucose levels were determined at the indicated time intervals. C57/black mice were made diabetic as described in the legend to FIG. 12.
EH-36 was tested for its potential anti-hyperglycemic activity in an animal model of diabetes. Male C57/black mice were made diabetic by daily i.p. injections of streptozotocin (50 mg/Kg) for 5 days. After 10 days the fasting blood glucose of these mice was above 300 mg/dL as compared to 80-130 mg/dL of control mice. Unlike a single and high dose injection of streptozotocin, which produces an animal model for Type 1 diabetes, the repeated low-dose injections produce a model that more closely resembles Type 2 diabetes. (Fraser, R. B., Rowden, G., Colp, P, And Wright, J. R. Jr.: Immunophenotyping of insulitis in control and essential fatty aid deficient mice treated with multiple low-dose streptozotocin. Diabetologia, 40:1263-1268, 1997).
EH-36 was dissolved in sesame oil (4 mg/ml) and injected into Streptozotocin-diabetic mice (s.c. 400 μg, twice a day at 08 and 18 hrs). Blood was withdrawn from the tip of the tails and glucose levels were measured with a glucometer.

For data set [2], the system named is glucose uptake in cultured cells. Description: In vitro glucose uptake / hexose transport in cultured cells with xylose derivatives (Table 2). Type of data set: cell-based. Conditions: for EC50 / ECmax: EC = Effective concentration. The procedure:
Table 2 summarizes in vitro results obtained with some of these newly synthesized xylose derivatives.
(§1) Uptake assay of the tritiated glucose analogue, 2-deoxy-D-glucose, is routinely performed as described in [Sasson, S. and Cerasi, E. (1986) J. Biol. Chem. 261, 16827-16833].
All new compounds are screened and tested first in various insulin-sensitive cell cultures used routinely in the laboratory (skeletal muscle and adipose cell lines). In addition these drugs were tested in non-insulin-sensitive cells such as primary cultures of bovine and porcine vascular endothelial and smooth muscle cells. Active compounds were tested ex-vivo on isolated rat soleus muscles. All cell cultures and tissues were maintained under hyperglycemic condition prior to the addition of the test compounds. Dose-response and time-course experiments determine which of the derivatives are subsequently tested in animal models. For each potent compound the total cell content and plasma membrane abundance of GLUT-1 and GLUT-4 was determined, as described above. The same biotinylation technique was employed to determine the total and plasma membrane content of both transporters in isolated mouse or rat soleus muscles treated with potent compounds.

Another data set can be described thus: Solubility of EH-36. The format is physicochemical. Conditions: e.g., DMSO, ethanol and oil.
Data set [3] concerns streptozotocin-diabetic mice. Description: Glucose tolerance test (GTT) of diabetic mice. The format is in vivo, mouse. The procedure:
FIG. 14: Glucose tolerance test (GTT) of diabetic mice treated with sesame oil or EH-36 for 9 days, as described in the legend to FIG. 12. On the morning of the 10th day and following an overnight fast the mice received glucose (2 gr/Kg body weight) by i.p. injection, Blood glucose was determined for 3 hr at 30 min intervals. The glucose data were plotted for each animal and the area under the curve (AUC) was calculated.
In another set of experiments similar diabetic mice were treated with the oil or EH-36 (1.5 mg, s.c. twice a day) for 9 days. On the morning of the 10th day and following an overnight fast the mice were subjected to a glucose tolerance test (GTT). The mice received D-glucose by i.p. injections (2 gr/kg body weight). Blood glucose as monitored for 3 hr at 30 min intervals.

Data set [4] in a line: Serum level of EH-36 in rats by HPLC. Conditions: 16 mg/day in sesame oil s.c. for 3 days, serum on fourth day, preliminary. Type of data set: in vivo, rat. The procedure: Extract aliquots (30 μl) were analyzed by reverse phase HPLC in a 150×4.6 mm, 3μ ODS Hypersil® column (Thermohypersil-Keystone, Bellfonte, Pa.) connected to an L-4200 UV-Vis detector (272 nm). Elution was at a flow rate of 1.5 ml/min with water and acetonitrile gradient: the initial solvent mixture was 30% water:70% acetonitrile:. A convex gradient over 20 min then followed to 100% acetonitrile.
The pharmacokinetic parameters of EH-36 were determined by the following procedure. Rats (3 per group per time point) were anesthetized and their blood collected from the portal vein. The serum was separated and extracted with chloroform. The extract was dried and redissolved in a small volume of chloroform and separated by HPLC and identified by UV absorption. The animals were treated with 16 mg/day (in sesame oil, s.c.) for 3 days. On the fourth day the animals were sacrificed and serum was isolated, extracted and separated by HPLC. There was a distinct peak of EH-36 corresponding to 1.01 mg/ml EH-36. To verify that this peak corresponds to EH-36 a known quantity of this compound was added to a serum sample taken from the EH-36-treated rats. Following extraction and HPLC analysis the only peak that was intensified was that corresponding to EH-36. […]

For the next data set, the system named is non-diabetic mice. Description: Blood glucose level of non-diabetic mice. Conditions: mouse, in vivo.
A further data set concerns L6 myotubes. Description: dGlc uptake assay in L6 myotubes. Conditions: for effect of PI3-kinase inhibitor LY-249002 on the substance's stimulation of hexose transport: 60 μM inhibitor, 23.0 mM glucose (FIG. 11A), EH-40 data not shown. Type of data set: cell-based, rat. As for the experimental part: (§2) FIG. 10: Western blot depicting effect of 3-O-propyl-D-xylose (EH-114), and 1,3-O-dimethylxylopyranoside (EH-101) on the total cell content and plasma membrane abundance of GLUT-4 in the absence or presence of insulin. L6 myotubes were maintained for 48 hr at 23 mM Glucose. The cells were than washed and received fresh medium containing the indicated additions and incubated for additional […]. Insulin was added during the last 30 min of incubation before the dGlc uptake assay.
FIG. 11A: Effect of LY-249002, a PI3-kinase inhibitor, on insulin, D-xylose, EH-101 and EH-114-mediated glucose uptake. L6 myotubes were treated as described in the legend to FIG. 10. The glucose concentration in the culture medium was 23.0 mM. The concentration of LY-294002 was 60 μM. At the end of incubation the cells were taken for the standard dGlc uptake assay. Mean±SEM, n=3.
(§3) GLUT-1 and GLUT-4 mediate glucose entry into L6 myotubes. It is established that GLUT-4 is translocated effectively and rapidly to the plasma membrane upon insulin treatment. The inventors looked at the effect of 3-O-propyl-D-xylose EH-114) and 1,3-O-dimethylxylopyranoside (EH-101) on the total cell content and plasma membrane abundance of these transporters in the absence or presence of insulin. L6 myotubes were maintained at 5.0 or 23.0 mM glucose for 48 hr and EH-114 and EH-101 were present during the last 24 hr. The cells were then taken for the standard [^3H]-2-deoxy-D-glucose uptake assay and for the biotinylation procedure for determining the amount of GLUT-1 and GLUT-4 in the plasma membrane. High glucose levels decreased the hexose transport rate by ˜50%. Insulin augmented the transport nearly 2-fold in both cases. EH-114 and EH-101 increased the transport rate 2-3-fold in the absence of insulin. Together with insulin the uptake rate was increased nearly 3-fold.
The inventors also tested the hypothesis that the active D-xylose derivatives augment the hexose transport capacity in L6 myotubes by translocating GLUT-4 to the plasma membrane not via the common insulin-regulated pathway. For this experiment, a selective inhibitor of the enzyme PI3-kinase, LY-249002, which is a key enzyme in the cellular transduction mechanism of insulin, was utilized. […] These findings also agree well with the longer onset of action of these derivatives as compared to the rapid action of insulin. Similar results were obtained when LY-249002 was present together with the derivatives throughout the entire incubation period.
as §1

In a further data set the test system is PKB. Description: PKB phosphorylation immunoblot in L6 myotubes. The format is cell-based, rat. Conditions: 23.0 mM glucose; 100 nM insulin, 20 mM xylose, 5 mM EH-114 or 250 μM EH-40, up to 24 hrs (FIG. 11B). As for the experimental part:
FIG. 11B: Effects of insulin D-xylose and xylose derivatives on PKB phosphorylation. L6 myotubes were maintained at 5.5 mM or 23.0 mM glucose. The latter were treated with 100 nM insulin, 20 mM xylose, 5 mM EH-114 or 250 μM EH-40 up to 24 hrs. At the indicated times treated myotubes were collected, homogenized and lysed and the soluble protein fraction was isolated. The control myotubes were collected at the end of the 24 hr incubation period. Equal amounts of proteins of the various treated myotubes were separated on SDS-PAGE and immunoblotted with a specific antibody against phospho-Axt1/PKBα (Ser473). In order to test whether xylose derivative activate insulin transduction elements downstream of PI3K, the inventors tested the state of PKB phosphorylation, as shown in FIG. 11B.
A general note: In western blotting, separated proteins are transferred to a membrane and probed.

The next data set relates to GLUT-4. Description: Cell surface biotinylation and western blot of GLUT-4 in L6 myotubes. Type of data set: cell-based, rat. Conditions: for translocation of GLUT-4 to the plasma membrane: L6 myotubes, xylose derivatives in the absence of insulin, insulin 500 nM (FIG. 10). The procedure:
as §2, §3
Surface biotinylation of the cells was performed as previously described [Sasson et al (1997), Diabetologia, 40, 30-398].

For the next data set, the system named is GLUT-1. Description: Cell surface biotinylation and western blot of GLUT-1 in L6 myotubes. Type of data set: cell-based, rat. Conditions: data not shown. As for the experimental part: as §3
FIG. 10 presents the western blots showing the results of such a representative experiment. Under hyperglycemic conditions the total cell content of GLUT-4 was reduced as well as its plasma membrane abundance [lanes 1 & 2 for Total cell content and PM (plasma membrane) fractions]. […]

In the case of `CCSC(SCC)[C@@H]1OC(c2ccccc2)O[C@@H]2COC(c3ccccc3)O[C@@H]21` (stereo partly drawn) [EH-36, 2,4:3,5 di-O-benzylidene-D-xylose-diethyl-dithioacetal], the blood glucose level result in [1] (400 μg s.c. in sesame oil twice a day (FIG. 13)) is “reduced their blood glucose level to the normoglycemic range”. The “duration of effect after treatment” value in data set [1] (after the last injection) is “at least 3 weeks”. The “blood glucose levels after treatment stopped” value in data set [1] (left untreated for four additional weeks after 9-day injection) is 250 to 350 mg/dL. Further, in [1] (untreated for four additional weeks), the “appearance of animals after treatment stopped” value was “looked normal and healthy”. In [2], the “Fold Increase of Glucose Uptake” value was 2.0 fold; the onset of action was 24 to 48 h; the “time to maximal stimulatory effects” value is given as not above 48 h; the EC50 – broadly, the concentration that produces a half-maximal response – is 2 µM. This molecule also displayed an ECmax in data set [2] of 10 µM. In addition, the “potency relative to D-xylose” value in [2] (more potent than xylose) is on record as 2000 fold. Besides, in “Solubility of EH-36”, the solubility result was “very limited solubility in most common organic solvents”. For the same molecule, in data set [3] (1.5 mg s.c. twice a day for 9 days, glucose 2 gr/kg i.p. on 10th day, ±SEM), the “average AUC of GTT” value turned out to be 6.42±1.62 mg glucose/ml/hr. The “improvement of glucose clearance” value in data set [3] (following a 9-day treatment) is listed as approximately 50%. This molecule registered a serum concentration in [4] of 1010 µg/mL. Also, in the data set with non-diabetic mice, the “blood glucose level of non-diabetic mice” value was “Neither EH-36 nor the vehicle changed significantly”.
Consider `CCSC(SCC)[C@@H]1OC(c2ccccc2)O[C@H](CO)[C@@H]1O` (stereo partly drawn) [EH-40, 2,4-benzylidene-D-xylose-diethyl-dithioacetal], for which the “effect of PI3-kinase inhibitor LY-249002 on the substance's stimulation of hexose transport” value in the data set on L6 myotubes was “abolished”. Further, the PKB phosphorylation result in the data set with PKB is “time-dependent and sustained phosphorylation”.
With `CCCO[C@@H]([C@H](O)CO)[C@@H](O)C=O` [EH-114, 3-O-propyl-D-xylose], in the data set on GLUT-4 (L6 cells exposed to 23.0 mM glucose (FIG. 10)), the “total cell content of GLUT-4” value is “increased the total content of the transporter”. For the same molecule, the “translocation of GLUT-4 to the plasma membrane” value with GLUT-4 is on record as “induced significant translocation of GLUT-4 to the plasma membrane”. In data set [2], the “Fold Increase of Glucose Uptake” value is listed as 2.6 fold, the response was half-maximal at 3000 µM (EC50) and the ECmax was 4500 µM. The “duration of activity following removal from the culture media” value in [2] (after being washed from cell cultures) is 24 h. The “effect of PI3-kinase inhibitor LY-249002 on the substance's stimulation of hexose transport” value in the data set on L6 myotubes is “failed to affect”. Further, the “increase of uptake rate together with insulin” value in the data set with L6 myotubes (L6 myotubes, compound during last 24 hr plus insulin) was approximately 3 fold. In addition, in the data set with PKB, the PKB phosphorylation result was “failed to induce significant phosphorylation”.
As for “Insulin: insulin, hormone used as positive control for glucose transport stimulation [reference compound]”, the “translocation of GLUT-4 to the plasma membrane” value with GLUT-4 is recorded as “translocation of GLUT-4 to the plasma membrane”. In the data set on L6 myotubes, the “effect of PI3-kinase inhibitor LY-249002 on the substance's stimulation of hexose transport” value was “eliminated the stimulatory effect”. Further, in the data set on L6 myotubes (at 5.0 and 23.0 mM glucose), the “augmentation of transport by insulin” value is approximately 2 fold. For the same molecule, the “effect on GLUT-1 (blots with anti GLUT-1 antibody)” value with GLUT-1 is “no effect”. Further, the PKB phosphorylation entry in the data set with PKB was “prominent, but transient phosphorylation”.
